Results as given in patent publication US7399608B2, “Microbial detection and quantification” (Kimberly-Clark Worldwide, Inc., priority 2003, dated 2008).

What was measured:
Rhinovirus = assay: Virus detection with Reichardt's dye
S. aureus [1] = assay: De-colorization of Reichardt's dye-coated paper and stickers by bacteria; parameters: species or system Staphylococcus aureus
Method: This experiment tested the ability of a surface coating of Reichardt's dye to respond to bacterial contamination. […] To this paper was added 100 μL aliquots of 10^7, 10^6, 10^5, and 10^4 CFU/mL E. coli or S. aureus solutions (8B). Water was used as a negative control. […] It was later determined that while both bacteria solutions were indeed at 10^7 CFU/mL concentrations, the actual concentration of the S. aureus solution was 7×10^7 CFU/mL compared to 1×10^7 CFU/mL for the E. coli solution.
A sheet of paper self-adhesive stickers (Avery-Dennison) was also brush-coated with two different concentrations of Reichardt's dye solution (160 mg/10 mL acetonitrile, 80 mg/10 mL acetonitrile). The stickers were applied to the lid and latch mechanism of a Huggies® Wet Wipes box. A gloved hand was used to transfer 10^7 CFU/mL S. aureus to the surface of the stickers. […] The sticker could provide a means for easy and rapid detection of bacterial contamination for a variety of applications.

E. coli [2] = assay: Towel coated with Reichardt's dye and TMB exposed to bacteria; parameters: species or system Escherichia coli; settings: E. coli suspension drop-wise
gram-positive bacteria = assay: Dye solution added to bacteria spot on SCOTT towel
Method: A new potential for the Reichardt's dye-based bacterial indicator was realized through testing of liquid dye with bacteria on a substrate rather than substrate-bound dye coming into contact with liquid bacteria (Example 5). This experiment focused on determining how the dye solution responds to known concentrations of bacteria residing on a surface. 100 μl of 10^8 CFU/ml gram-positive bacteria was placed on a SCOTT® towel (FIG. 9A). To this spot was added a drop of the Reichardt's dye dissolved in acetonitrile (160 mg in 10 ml acetonitrile) (9B).
For comparison, a spot of dye was dried onto the towel and the same amount of bacteria was added. […] Additional drops of the dye were added to the spot of bacteria (9C), and de-colorization continued until the fourth drop, at which point the purple color persisted (9D). Attempts to restore the dye color on the dye-coated SCOTT® towel by adding acetonitrile using a pipette were unsuccessful (9E).

Polio virus type 1 = settings: virus diluted serially in media, 50-microliter aliquots, 3 minutes
measles = assay: Virus detection with Reichardt's dye-coated stickers
S. aureus [3] = assay: Titration of substrate-bound microorganism with Reichardt's dye solution; parameters: species or system Staphylococcus aureus
Method: On a SCOTT® paper towel was placed 100 μl each of serially diluted S. aureus bacterial suspensions. […] This was repeated on each spot corresponding to where different concentrations of bacteria were placed.

bacteria solution = assay: Lateral flow device; settings: 5 weight percent dye in iso-propanol striped on nitrocellulose HF75
Method: Millipore nitrocellulose HF75 membrane (from Millipore Corporation of Billerica, Mass., USA) was laminated onto a plastic supporting card (from Millipore Corp.) having a length of approximately 30 centimeters. On both the detection zone and control zone, a solution of 5 weight percent Reichardt's dye in iso-propanol was hand striped. The membrane was dried in a laboratory oven for 1 hour at a temperature of 37.5° C. After the membrane card was taken from the oven, a cellulosic wicking pad (Cat# CFSP203000 from Millipore Corp.) was attached to one end of the membrane closer to the control zone. The other end of the card, used to attach the sample pad, was cut off. The card was then sliced into 4 mm strips to form half sticks.
Once the half sticks were prepared, a bacteria solution was applied to the end of the detection membrane. […] The control line color remained the same through out the test.

Bleach indicator test = type: physicochemical; settings: mixture with TMB coated on SCOTT towel
[4] = test system: bacteria from aged chicken juice; assay: Reichardt's dye indicator spray on surfaces contaminated with aged chicken; settings: for false-positive test: chicken broth versus aged chicken juice: 160 mg in 10 ml isopropanol
[5] = Effect of acid and strong base on Reichardt's dye de-colorization; type: physicochemical
Source text: This was repeated with another area.

E. coli [6] = assay: Cyclodextrin enhancement: coated towel with bacteria; parameters: species or system Escherichia coli; settings: hydroxypropyl-beta-cyclodextrin coated towel
Method: A SCOTT® paper towel was first coated with hydroxypropyl-beta-cyclodextrin (from Cerestar International, Hammond, Ind., USA) in solution in water (1 gram in 20 ml) by dipping and air-drying at ambient temperature. When dry the coated paper towel was treated with a solution of Reichardt's dye in isopropanol (1 weight percent) and allowed to air-dry. The dried towel was a purple/blue in color. Here the cyclodextrin hinders the crystallization of the dye allowing a more vivid color of the dye to occur on the paper towel. This coated towel was used in a test with gram-negative bacteria (E. coli) and found to turn colorless in less than 5 seconds when an aliquot of 100 microliters of media containing 10,000 CFU/ml was applied to the towel. […] Thus by hindering the dye from crystallizing, the dye is believed to be present on the substrate as single molecules and therefore the sensitivity of the dye to bacteria levels increases. The inventors believe that by careful use of a coating (e.g. cyclodextrin) on the towel a mono-molecular coating of dye will occur on the surface of the substrate and maximum sensitivity will occur.

[7] = test system: microbes on computer keyboard; assay: Indicator spray on computer keyboard
Method: Reichardt's dye was dissolved in isopropanol (160 mg in 10 mL of isopropanol) and attached to an aerosol-based spray device. The keyboard was then sprayed with the indicator solution (10B).

[8] = 160 mg in 10 ml acetonitrile dried on SCOTT towel

[O-]c1c(-c2ccccc2)cc(-[n+]2c(-c3ccccc3)cc(-c3ccccc3)cc2-c2ccccc2)cc1-c1ccccc1 [Reichardt's dye, 2,6-diphenyl-4-(2,4,6-triphenylpyridinio)-phenolate]
dye added until the color persisted (Rhinovirus; 80 milligrams/10 milliliters acetonitrile with or without TWEEN 80, 100-microliter drop of undiluted virus on SCOTT towel): approximately 9 drops
lowest ten-fold dilution at which stickers changed color (Rhinovirus; virus diluted serially in saline, 50-microliter aliquots, 3 minutes): 10^−6
de-colorization time (S. aureus [1]; paper brush-coated with 80 mg/10 mL acetonitrile, 100 μL of 10^7 to 10^4 CFU/mL): < 1 min
de-colorization of coated stickers (S. aureus [1]; stickers coated with 160 or 80 mg/10 mL acetonitrile, 10^7 CFU/mL transferred by gloved hand): rapidly de-colorized
time to decolorize to a white spot (E. coli [2]): less than 10 seconds
de-colorization of dye solution added to bacteria spot (gram-positive bacteria; 160 mg in 10 ml acetonitrile dropped on 100 μl of 10^8 CFU/ml on SCOTT towel): immediately de-colorized
drop at which the purple color persisted (gram-positive bacteria; 160 mg in 10 ml acetonitrile, 100 μl of 10^8 CFU/ml): fourth drop
time to de-colorize when bacteria are placed onto dye dried on towel (gram-positive bacteria; dye spot dried on cellulosic towel, same amount of bacteria): several minutes
lowest ten-fold dilution at which stickers changed color (Polio virus type 1): 10^−6
de-colorization of sticker by undiluted virus (measles): less than that observed for the other viruses
Amount of Dye Required for Persistent Color (S. aureus [3]; 160 mg in 10 ml acetonitrile, 10 μl aliquots, 100 μl of 10^7 CFU/ml on towel): 90 µL
de-colorization time of dye drops (S. aureus [3]; 10 μl drops of 40 mg/10 ml acetonitrile on 100 μl serially diluted suspensions on SCOTT towel): < 1 s
color change in detection zone of lateral flow half stick (bacteria solution): a color change was noted in the detection zone
response of Reichardt's dye to dilute bleach (Bleach indicator test): de-colorizing
color change of indicator spray on area contacted by aged chicken ([4]; 160 mg in 10 mL acetonitrile, sprayed on ceramic plate): decolorized
color change of indicator spray on contaminated doorknob ([4]; 160 mg in 10 mL isopropanol, plastic doorknob marked with aged chicken juice): de-colorization of the Reichardt's dye from blue to colorless
false-positive test: chicken broth versus aged chicken juice ([4]; ceramic surface): only the side containing the aged chicken juice (and thus bacteria) was de-colorized
false-positive test: chicken broth versus aged chicken juice ([4]; hot plate surface): only the side containing the aged chicken juice (and thus bacteria) was de-colorized
de-colorization after cleaning guided by the spray ([4]; isopropanol spray, ceramic surface cleaned again with 60% ethanol antiseptic): no de-colorization took place
effect of 1 N NaOH on acid-decolorized dye spots [5, 8]: rapid re-colorization
effect of acetic acid and Aldrich buffer pH 2.0 on dried dye spots [5, 8]: rapid de-colorization
effect of 1 N NaOH on dye decolorized by aged chicken juice ([5]; indicator spray 160 mg in 10 ml acetonitrile, hot plate surface): re-colorization of that small spot
lowest bacteria concentration at which decolorization occurred (E. coli [6]; 1 weight percent dye in isopropanol): 500 CFU/ml
time to turn colorless (E. coli [6]; 1 weight percent dye in isopropanol, 100 microliters of 10,000 CFU/ml): less than 5 seconds
time to decolorize (E. coli [6]; 500 CFU/ml): ≤ 15 s
de-colorization of spray on old computer keyboard [7]: rapid de-colorization of the dye in certain areas
